Experimental data from the supplement of paper PMC10331698.
± gives the standard deviation of the averaged measurements.

Assays:
Assay in all cases: level (log10 ratio to DMSO vehicle control); higher = higher biomarker level / cell amount than vehicle control
Details in all cases: in DMSO
Azathioprine = compound: Cn1cnc([N+](=O)[O-])c1Sc1ncnc2[nH]cnc12 [Azathioprine]
Procedure: (§1)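 BioMAP Diversity Plus panel of 12 human primary cell co-culture systems (3C, 4H, LPS, SAg, BT, BF4T, BE3C, CASM3C, HDF3CGF, KF3CT, MyoF, Mphg). Compounds were added 1 h before stimulation and left for 24 h (MyoF 48 h; BT 72 h for soluble read-outs or 6 d for IgG). Biomarkers were read by ELISA, cytotoxicity by SRB, PBMC viability and proliferation by Alamar Blue. Each well value was divided by the mean of 8 DMSO control wells on the same plate and log10 transformed; duplicate blinded samples were tested at 4 concentrations.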

Perfluorooctanamide = compound: NC(=O)C(F)(F)C(F)(F)C(F)(F)C(F)(F)C(F)(F)C(F)(F)C(F)(F)F [Perfluorooctanamide]
Procedure: as §1

Hexafluoroglutaric acid = compound: O=C(O)C(F)(F)C(F)(F)C(F)(F)C(=O)O [Hexafluoroglutaric acid]
Procedure: as §1

[1] = compound: O=C(O)C(F)(F)C(F)(F)C(F)(F)C(F)(F)C(F)(F)C(F)(F)C(F)(F)C(F)(F)C(F)(F)C(F)(F)C(F)(F)C(F)(F)C(F)(F)F [Perfluorotetradecanoic acid]
Procedure: as §1

[2] = compound: O=C(O)C(F)(F)C(F)(F)C(F)(F)C(F)(F)C(F)(F)C(F)(F)C(F)(F)C(F)(F)C(F)(F)C(F)(F)C(F)(F)C(F)(F)F [Perfluorotridecanoic acid]
Procedure: as §1

1H,1H-Heptafluorobutanol = compound: OCC(F)(F)C(F)(F)C(F)(F)F [1H,1H-Heptafluorobutanol]
Procedure: as §1

Test System	level (log10) (Azathioprine; 1400 nM)	level (log10) (Azathioprine; 4200 nM)	level (log10) (Azathioprine; 13000 nM)	level (log10) (Azathioprine; 38000 nM)	level (log10) (Perfluorooctanamide; 6700 nM)	level (log10) (Perfluorooctanamide; 20000 nM)	level (log10) (Perfluorooctanamide; 60000 nM)	level (log10) (Hexafluoroglutaric acid; 6700 nM)	level (log10) (Hexafluoroglutaric acid; 20000 nM)	level (log10) (Hexafluoroglutaric acid; 60000 nM)	level (log10) ([1]; 6700 nM)	level (log10) ([1]; 20000 nM)	level (log10) ([2]; 1500 nM)	level (log10) ([2]; 4400 nM)	level (log10) ([2]; 13000 nM)	level (log10) ([2]; 40000 nM)	level (log10) (1H,1H-Heptafluorobutanol; 6700 nM)	level (log10) (1H,1H-Heptafluorobutanol; 20000 nM)	level (log10) (1H,1H-Heptafluorobutanol; 60000 nM)
LPS:sTNF-alpha	-0.0135 ± 0.022	-0.015 ± 0.0099	-0.035 ± 0.017	-0.233 ± 0.0078	-0.036 ± 0.034	-0.025 ± 0.0085	-0.028 ± 0.0071	0.0045 ± 0.026	-0.0025 ± 0.022	0.0035 ± 0.0064	-0.009 ± 0.037	0.003 ± 0.018	-0.0185 ± 0.0092	-0.016 ± 0.018	-0.0375 ± 0.025	-0.0485 ± 0.021	0.005	0.0015 ± 0.019	-0.0155 ± 0.032
SAg:CCL2/MCP-1	-0.004 ± 0.017	-0.0275 ± 0.0064	-0.054 ± 0.011	-0.112 ± 0.056	-0.008 ± 0.021	-0.02 ± 0.018	-0.0085 ± 0.042	-0.028 ± 0.0071	-0.0205 ± 0.0035	-0.0205 ± 0.016	-0.021 ± 0.0057	-0.0185 ± 0.0064	-0.013 ± 0.016	-0.0275 ± 0.0035	-0.0265 ± 0.0064	0.005 ± 0.014	0.0075 ± 0.019	0.0065 ± 0.025	0.008 ± 0.05
SAg:CD38	0.0035 ± 0.0035	-0.0035 ± 0.00071	-0.0265 ± 0.013	-0.0765 ± 0.03	0.0005 ± 0.005	0.0085 ± 0.028	0.003 ± 0.018	-0.002 ± 0.0071	-0.0075 ± 0.00071	0.0075 ± 0.021	-0.0205 ± 0.03	-0.018 ± 0.016	-0.017 ± 0.014	-0.037 ± 0.02	-0.0245 ± 0.018	-0.027 ± 0.0028	-0.028 ± 0.064	-0.0145 ± 0.015	-0.0115 ± 0.088
SAg:CD40	-0.0125 ± 0.042	-0.0095 ± 0.019	-0.055 ± 0.025	-0.118 ± 0.033	-0.0215 ± 0.028	-0.0195 ± 0.0064	-0.021 ± 0.033	-0.012 ± 0.0014	-0.0225 ± 0.022	0.0095 ± 0.0092	-0.0395 ± 0.069	-0.081 ± 0.085	-0.021 ± 0.017	-0.071 ± 0.0057	-0.0705 ± 0.06	-0.497 ± 0.044	-0.011 ± 0.018	0.0045 ± 0.0092	0.0175 ± 0.074
SAg:CD62E/E-Selectin	-0.007 ± 0.013	-0.0485 ± 0.023	-0.07 ± 0.027	-0.284 ± 0.018	-0.0135 ± 0.035	-0.0265 ± 0.00071	0.0145 ± 0.0092	-0.004 ± 0.033	-0.008 ± 0.052	-0.0025 ± 0.0078	0 ± 0.0028	0.019 ± 0.0028	0.0065 ± 0.018	-0.0015 ± 0.0064	0.012 ± 0.0057	0.006 ± 0.0014	0.003 ± 0.013	0.01 ± 0.038	0.0125 ± 0.053
